Measurements from article PMC11511665 (2024).
Blank lines part the entries; values can stand above or below the compound they belong to.

How the values were obtained:
[1] = test system: Clivia (R8 aptamer, GAAA tetraloop) (RNA, aptamer) GGAAGAUUGUAAACAUGCCGAAAGGCAGACACUUCC; assay: X-ray crystallography; settings: Mg2+ (0.05 M MgCl2); 0.1 M HEPES pH 7.5, 30% PEG MME 550, 16 °C
[2] = test system: Clivia_III (III_R8) (RNA, aptamer) GGAAGAUUGUAAACAGCGAGAUUGUAAACAGCGAGAUUGUAAACAUGCCGAAAGGCAGACACUCGCGACACUCGCGACACUUUC; assay: X-ray crystallography; settings: 0.2 M MgCl2; 20% PEG 3350, 16 °C
[3] = test system: M1 (delete U7; Del-U7) (RNA, aptamer) GGAAGAUGUAAACAUGCCGAAAGGCAGACACUUCC; assay: fluorescence activation; settings: 100 mM KCl, 5 mM MgCl2; 40 mM HEPES pH 7.4; 1 μM fluorophore, 5 μM RNA
[4] = test system: M2 (A11G/A12G/A13G) (RNA, aptamer) GGAAGAUUGUGGGCAUGCCGAAAGGCAGACACUUCC; assay: fluorescence activation; settings: 100 mM KCl, 5 mM MgCl2; 40 mM HEPES pH 7.4; 1 μM fluorophore, 5 μM RNA
[5] = test system: M3 (A11C/A12C/A13C) (RNA, aptamer) GGAAGAUUGUCCCCAUGCCGAAAGGCAGACACUUCC; assay: fluorescence activation; settings: 100 mM KCl, 5 mM MgCl2; 40 mM HEPES pH 7.4; 1 μM fluorophore, 5 μM RNA
[6] = test system: M4 (A11U/A12U/A13U) (RNA, aptamer) GGAAGAUUGUUUUCAUGCCGAAAGGCAGACACUUCC; assay: fluorescence activation; settings: 100 mM KCl, 5 mM MgCl2; 40 mM HEPES pH 7.4; 1 μM fluorophore, 5 μM RNA
[7] = test system: M5 (U8C/A29G) (RNA, aptamer) GGAAGAUCGUAAACAUGCCGAAAGGCAGGCACUUCC; assay: fluorescence activation; settings: 100 mM KCl, 5 mM MgCl2; 40 mM HEPES pH 7.4; 1 μM fluorophore, 5 μM RNA
[8] = test system: M6 (U8A/A29U) (RNA, aptamer) GGAAGAUAGUAAACAUGCCGAAAGGCAGUCACUUCC; assay: fluorescence activation; settings: 100 mM KCl, 5 mM MgCl2; 40 mM HEPES pH 7.4; 1 μM fluorophore, 5 μM RNA
[9] = test system: M7 (A15G/G28A) (RNA, aptamer) GGAAGAUUGUAAACGUGCCGAAAGGCAAACACUUCC; assay: fluorescence activation; settings: 100 mM KCl, 5 mM MgCl2; 40 mM HEPES pH 7.4; 1 μM fluorophore, 5 μM RNA
[10] = test system: M8 (G28U) (RNA, aptamer) GGAAGAUUGUAAACAUGCCGAAAGGCAUACACUUCC; assay: fluorescence activation; settings: 100 mM KCl, 5 mM MgCl2; 40 mM HEPES pH 7.4; 1 μM fluorophore, 5 μM RNA
[11] = test system: M9 (A15C) (RNA, aptamer) GGAAGAUUGUAAACCUGCCGAAAGGCAGACACUUCC; assay: fluorescence activation; settings: 100 mM KCl, 5 mM MgCl2; 40 mM HEPES pH 7.4; 1 μM fluorophore, 5 μM RNA
[12] = test system: Clivia_II (II_R8) (RNA, aptamer) GGAAGAUUGUAAACAGCGAGAUUGUAAACAUGCCGAAAGGCAGACACUCGCGACACUUUC; assay: fluorescence activation; settings: 100 mM KCl, 5 mM MgCl2; 40 mM HEPES pH 7.4
[13] = test system: Clivia_IV (IV_R8) (RNA, aptamer) GGAAGAUUGUAAACAGCGAGAUUGUAAACAGCGAGAUUGUAAACAGCGAGAUUGUAAACAUGCCGAAAGGCAGACACUCGCGACACUCGCGACACUCGCGACACUUUC; assay: fluorescence activation; settings: 100 mM KCl, 5 mM MgCl2; 40 mM HEPES pH 7.4
[14] = test system: Clivia_V (V_R8) (RNA, aptamer) GGAAGAUUGUAAACAGCGAGAUUGUAAACAGCGAGAUUGUAAACAGCGAGAUUGUAAACAGCGAGAUUGUAAACAUGCCGAAAGGCAGACACUCGCGACACUCGCGACACUCGCGACACUCGCGACACUUUC; assay: fluorescence activation; settings: 100 mM KCl, 5 mM MgCl2; 40 mM HEPES pH 7.4
[15] = test system: Clivia_VI (VI_R8) (RNA, aptamer) GGAAGAUUGUAAACAGCGAGAUUGUAAACAGCGAGAUUGUAAACAGCGAGAUUGUAAACAGCGAGAUUGUAAACAGCGAGAUUGUAAACAUGCCGAAAGGCAGACACUCGCGACACUCGCGACACUCGCGACACUCGCGACACUCGCGACACUUUC; assay: fluorescence activation; settings: 100 mM KCl, 5 mM MgCl2; 40 mM HEPES pH 7.4
[16] = test system: Clivia (R8 aptamer, GAAA tetraloop) (RNA, aptamer) GGAAGAUUGUAAACAUGCCGAAAGGCAGACACUUCC; assay: X-ray crystallography, 1.6 Å; settings: Mg2+ (0.05 M MgCl2); 0.1 M HEPES pH 7.5, 30% PEG MME 550, 16 °C
[17] = test system: Clivia (R8 aptamer, GAAA tetraloop) (RNA, aptamer) GGAAGAUUGUAAACAUGCCGAAAGGCAGACACUUCC; assay: fluorescence titration, Hill fit; settings: 100 mM KCl, 5 mM MgCl2; 40 mM HEPES pH 7.4; 20 nM RNA
[18] = test system: U7A (RNA, aptamer) GGAAGAAUGUAAACAUGCCGAAAGGCAGACACUUCC; assay: fluorescence titration, Hill fit; settings: 100 mM KCl, 5 mM MgCl2; 40 mM HEPES pH 7.4; 20 nM RNA
[19] = test system: U7C (RNA, aptamer) GGAAGACUGUAAACAUGCCGAAAGGCAGACACUUCC; assay: fluorescence titration, Hill fit; settings: 100 mM KCl, 5 mM MgCl2; 40 mM HEPES pH 7.4; 20 nM RNA
[20] = test system: U7G (RNA, aptamer) GGAAGAGUGUAAACAUGCCGAAAGGCAGACACUUCC; assay: fluorescence titration, Hill fit; settings: 100 mM KCl, 5 mM MgCl2; 40 mM HEPES pH 7.4; 20 nM RNA
[21] = test system: M10 (delete 2bp in P1; Del-2bp-P1) (RNA, aptamer) GAGAUUGUAAACAUGCCGAAAGGCAGACACUC; assay: fluorescence titration, Hill fit; settings: 100 mM KCl, 5 mM MgCl2; 40 mM HEPES pH 7.4; 20 nM RNA
[22] = test system: M11 (add 2bp in P1; Ad-2bp-P1) (RNA, aptamer) GGGGAAGAUUGUAAACAUGCCGAAAGGCAGACACUUCCCC; assay: fluorescence titration, Hill fit; settings: 100 mM KCl, 5 mM MgCl2; 40 mM HEPES pH 7.4; 20 nM RNA
[23] = test system: M12 (delete 2bp in P2; Del-2bp-P2) (RNA, aptamer) GGAAGAUUGUAAACACCGAAAGGGACACUUCC; assay: fluorescence titration, Hill fit; settings: 100 mM KCl, 5 mM MgCl2; 40 mM HEPES pH 7.4; 20 nM RNA
[24] = test system: M13 (add 2bp in P2; Ad-2bp-P2) (RNA, aptamer) GGAAGAUUGUAAACAUGCCGCGAAAGCGGCAGACACUUCC; assay: fluorescence titration, Hill fit; settings: 100 mM KCl, 5 mM MgCl2; 40 mM HEPES pH 7.4; 20 nM RNA

binding [1]: yes
Structure (SMILES): CN1C(=O)/C(=C/c2cc(F)c(O)c(F)c2)N=C1/C=C/c1ccc(O)cc1

binding [2]: yes | binding [3]: no | binding [4]: no | binding [5]: no | binding [6]: no | binding [7]: no | binding [8]: no | binding [9]: no | binding [10]: weak | binding [11]: no | binding [12]: yes | binding [13]: yes | binding [14]: yes | binding [15]: yes | binding [16]: yes | Kd [17]: 71 ± 15 nM | Kd [18]: 107 ± 12 nM | Kd [19]: 46 ± 3 nM | Kd [20]: 152 ± 12 nM | Kd [21]: 84 nM | Kd [22]: 61 nM | Kd [23]: 44 nM | Kd [24]: 55 nM
Structure (SMILES): CN1C(=O)/C(=C/c2ccc(N(C)CCO)cc2)N=C1/C=C/c1ccccc1

binding [1]: yes
Structure (SMILES): CN1C(=O)/C(=C/c2cc(F)c(O)c(F)c2)N=C1/C=C/c1ccc(C#N)cc1

binding [1]: yes
Structure (SMILES): CN1C(=O)/C(=C/c2cc(F)c(O)c(F)c2)N=C1/C=C/c1ccccc1
